Test results from the NIST ThermoML archive (doi:10.1016/j.fluid.2012.10.015).
± gives the expanded uncertainty stated by the source.

Columns and labels:
[1] = Liquid; for mass density: 101.33 kPa, Vibrating tube method; for vapor or sublimation pressure: Closed cell (Static) method
[2] = refractive index (Na D-line) (dimensionless); details: 298.15 K; 101.33 kPa; Liquid; Standard Abbe refractometry

Which mass density ([1]; 298.15 K) does the source give for `CC[N+](=O)[O-]` [nitroethane] here?
The mass density was 1044.21 ± 2.3 kg/m3.

What about the “vapor or sublimation pressure” value ([1]; 298.15 K) of the same compound?
The value was 2.95 ± 0.05 kPa.

And the “vapor or sublimation pressure” value ([1]; 308.15 K)?
The value was 4.69 ± 0.06 kPa.

What about the “vapor or sublimation pressure” value ([1]; 318.15 K) of the same compound?
Its value is 7.24 ± 0.07 kPa.

What about the refractive index [2] of the same compound?
The refractive index was 1.38951 ± 0.00071.

With `CCCCCl` [1-chlorobutane] as the compound, how does the mass density ([1]; 298.15 K) read?
Its mass density is 881.172 ± 2.2 kg/m3.

And the “vapor or sublimation pressure” value ([1]; 298.15 K)?
Its value is 13.72 ± 0.15 kPa.

What about the “vapor or sublimation pressure” value ([1]; 308.15 K) of the same compound?
Its value is 20.66 ± 0.19 kPa.

What about the “vapor or sublimation pressure” value ([1]; 318.15 K) of the same compound?
The value was 31.46 ± 0.23 kPa.

What about the refractive index [2] of the same compound?
The refractive index was 1.39953 ± 0.00068.

What does the source list for `C[N+](=O)[O-]` [nitromethane]?
mass density ([1]; 298.15 K): 1130.87 ± 2.3 kg/m3; vapor or sublimation pressure ([1]; 298.15 K): 4.83 ± 0.07 kPa; vapor or sublimation pressure ([1]; 308.15 K): 7.5 ± 0.09 kPa; vapor or sublimation pressure ([1]; 318.15 K): 12.57 ± 0.11 kPa; refractive index [2]: 1.37956 ± 0.00072

Which mass density ([1]; 298.15 K) does the source give for `CCCCCCl` [1-chloropentane] here?
Its mass density is 877.089 ± 2.2 kg/m3.

And the “vapor or sublimation pressure” value ([1]; 298.15 K)?
The value was 4.24 ± 0.07 kPa.

And the “vapor or sublimation pressure” value ([1]; 308.15 K)?
Its value is 7.09 ± 0.08 kPa.

And the “vapor or sublimation pressure” value ([1]; 318.15 K)?
Its value is 10.91 ± 0.09 kPa.

And the refractive index [2]?
Its refractive index is 1.41015 ± 0.00068.
